Key:
Assay in all cases: relative viability (nuclei count vs DMSO), 5 days (fraction); higher = more cells survive
KIN001-266 + Palbociclib = compound: CCN1CCC(CC1)N2C=C(N=N2)CNC3=CC4=C(C(=CN=C4C(=C3)Cl)C#N)NC5=CC(=C(C=C5)F)Cl [KIN001-266] + CC(=O)c1c(C)c2cnc(Nc3ccc(N4CCNCC4)cn3)nc2n(C2CCCC2)c1=O [Palbociclib] (partner 0.5 µM)
Summary of the method: (§1)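 Dosing by pin tool came one day after lung cancer cell lines were seeded in 1536-well plates, using either one drug or a fixed anchor-drug dose plus five library-drug doses (not always all listed) in √10 steps. After 5 days, nuclei were counted on 4× images. Relative viability is treated-well nuclei count divided by vehicle-well nuclei count, and values are medians of duplicate plates.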

KIN001-266 + Bortezomib = compound: CCN1CCC(CC1)N2C=C(N=N2)CNC3=CC4=C(C(=CN=C4C(=C3)Cl)C#N)NC5=CC(=C(C=C5)F)Cl [KIN001-266] + CC(C)C[C@H](NC(=O)[C@H](Cc1ccccc1)NC(=O)c1cnccn1)B(O)O [Bortezomib] (partner 0.002 µM)
Summary of the method: as §1

KIN001-266 + Foretinib = compound: CCN1CCC(CC1)N2C=C(N=N2)CNC3=CC4=C(C(=CN=C4C(=C3)Cl)C#N)NC5=CC(=C(C=C5)F)Cl [KIN001-266] + COc1cc2c(Oc3ccc(NC(=O)C4(C(=O)Nc5ccc(F)cc5)CC4)cc3F)ccnc2cc1OCCCN1CCOCC1 [Foretinib] (partner 0.25 µM)
Summary of the method: as §1

KIN001-266 + Pictilisib = compound: CCN1CCC(CC1)N2C=C(N=N2)CNC3=CC4=C(C(=CN=C4C(=C3)Cl)C#N)NC5=CC(=C(C=C5)F)Cl [KIN001-266] + CS(=O)(=O)N1CCN(Cc2cc3nc(-c4cccc5[nH]ncc45)nc(N4CCOCC4)c3s2)CC1 [Pictilisib] (partner 1 µM)
Summary of the method: as §1

Cell Line	relative viability (KIN001-266 + Palbociclib; first compound 0.08 µM)	relative viability (KIN001-266 + Palbociclib; first compound 0.253 µM)	relative viability (KIN001-266 + Palbociclib; first compound 0.8 µM)	relative viability (KIN001-266 + Palbociclib; first compound 2.53 µM)	relative viability (KIN001-266 + Palbociclib; first compound 8 µM)	relative viability (KIN001-266 + Bortezomib; first compound 0.08 µM)	relative viability (KIN001-266 + Bortezomib; first compound 0.253 µM)	relative viability (KIN001-266 + Bortezomib; first compound 0.8 µM)	relative viability (KIN001-266 + Bortezomib; first compound 2.53 µM)	relative viability (KIN001-266 + Bortezomib; first compound 8 µM)	relative viability (KIN001-266 + Foretinib; first compound 0.08 µM)	relative viability (KIN001-266 + Foretinib; first compound 0.253 µM)	relative viability (KIN001-266 + Foretinib; first compound 0.8 µM)	relative viability (KIN001-266 + Foretinib; first compound 2.53 µM)	relative viability (KIN001-266 + Foretinib; first compound 8 µM)	relative viability (KIN001-266 + Pictilisib; first compound 0.08 µM)	relative viability (KIN001-266 + Pictilisib; first compound 0.253 µM)	relative viability (KIN001-266 + Pictilisib; first compound 0.8 µM)	relative viability (KIN001-266 + Pictilisib; first compound 2.53 µM)	relative viability (KIN001-266 + Pictilisib; first compound 8 µM)
NCI-H2009	0.203	0.257	0.253	0.208	0.203	1.02	1.06	1.09	0.95	0.658	1.15	1.16	1.28	1.23	1.03	0.852	0.935	1.02	0.669	0.48
NCI-H2023	0.333	0.383	0.388	0.289	0.288	1.08	1.1	1.2	1.03	0.76	0.837	0.959	1.02	0.919	0.556	0.242	0.293	0.267	0.259	0.232
NCI-H2085	0.478	0.494	0.504	0.461	0.38	1.01	1.04	0.888	1.14	0.916	1.06	1.01	0.731	0.939	0.954	0.524	0.452	0.421	0.462	0.458
NCI-H2087	0.241	0.308	0.267	0.26	0.242	0.761	0.87	0.717	0.719	0.609	1.22	1.17	1.09	1.15	0.962	1.02	0.934	0.71	0.868	0.554
NCI-H2126	0.324	0.366	0.387	0.358	0.365	1.16	1.12	1.15	1.13	1.14	1.12	1.18	1.15	1.26	1.15	0.53	0.538	0.449	0.434	0.5
NCI-H2228	0.836	0.797	0.936	0.763	0.664	1.03	0.935	1.09	1.33	0.796	0.76	0.733	0.82	0.89	0.602	0.343	0.312	0.425	0.276	0.432
NCI-H2347	0.445	0.468	0.401	0.442	0.404	1.16	1.03	0.905	0.858	0.611	1.04	0.622	0.746	0.844	0.632	0.663	0.698	0.476	0.422	0.485
NCI-H2405	0.525	0.567	0.551	0.467	0.441	0.99	1	0.984	0.925	0.809	1.06	1.02	1.02	1.05	0.713	0.384	0.412	0.449	0.288	0.347
NCI-H3122	0.155	0.204	0.176	0.233	0.209	0.996	1.03	1.03	0.969	0.974	0.98	0.961	0.94	0.918	0.914	0.573	0.615	0.494	0.559	0.544
PC-3 [JPC-3]	0.539	0.544	0.542	0.537	0.549	0.786	0.846	0.813	0.736	0.764	1.02	1.04	0.983	0.972	0.889	0.797	0.8	0.575	0.693	0.527
PC-14	0.55	0.518	0.594	0.509	0.0895	0.881	0.816	0.892	0.759	0.297	0.907	1.04	0.743	0.979	0.503	0.702	0.571	0.772	0.565	0.0965
RERF-LC-KJ	1.14	1.07	1.13	1.11	0.83	1.11	1.23	1.08	1.01	0.82	0.882	0.873	0.837	0.837	0.757	0.537	0.554	0.516	0.635	0.315
SK-LU-1	0.393	0.381	0.421	0.373	0.339	1.39	1.14	1.31	1.12	1.04	0.844	0.824	0.84	0.814	0.486	0.562	0.546	0.637	0.467	0.434
SW 1573	0.39	0.376	0.457	0.426	0.356	1.13	0.914	1.09	0.92	0.808	0.989	0.787	1.02	0.915	0.855	0.523	0.448	0.502	0.474	0.39
UMC-11	0.293	0.338	0.304	0.329	0.391	0.703	0.543	0.71	0.638	0.738	1.08	1.07	1.12	0.945	0.684	0.808	0.841	0.827	0.5	0.677

— the supplement of paper PMC10307832
